Measurements published in US6891057B2, “Compounds for generating chemiluminescence with a peroxidase” (Lumigen, Inc., priority 1997, dated 2005).

Target: T1, horseradish peroxidase (HRP) (Armoracia rusticana, UniProt P00433)
T1 sequence (P00433 31-338 limits assumed): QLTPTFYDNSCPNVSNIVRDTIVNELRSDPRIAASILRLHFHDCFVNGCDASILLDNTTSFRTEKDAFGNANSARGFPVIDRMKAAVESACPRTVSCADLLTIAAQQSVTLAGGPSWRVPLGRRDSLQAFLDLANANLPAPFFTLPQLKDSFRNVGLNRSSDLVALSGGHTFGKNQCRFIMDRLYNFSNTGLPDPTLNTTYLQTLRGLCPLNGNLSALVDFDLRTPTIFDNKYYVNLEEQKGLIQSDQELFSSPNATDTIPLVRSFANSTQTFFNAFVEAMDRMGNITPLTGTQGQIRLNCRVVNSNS
Test: Chemiluminescent detection of HRP: reaction of compound with peroxidase and peroxide
Format: biochemical
Conditions: for time to maximum chemiluminescence intensity: 0.01 M tris pH 8.0, 0.5 mM urea peroxide, 0.1 mM p-phenylphenol, 1 mM EDTA, 0.025% Tween 20, 5×10^−5 M acridan, HRP 3.5×10^−16 to 1.4×10^−15 moles
Method: FIG. 1 is a graph relating the amount of HRP to the chemiluminescence intensity at 15 min emitted by 100 μL of a reagent described in Example 20 containing acridan phosphate 5 triggered at room temperature. Chemiluminescence emission was initiated by addition of 10 μL of solutions of HRP containing between 1.4×10^−15 and 1.4×10^−19 moles of enzyme to 100 μL of the reagent comprising 0.055 M tris buffer, pH 8.6, 0.25 mM urea peroxide, 0.05 mM p-phenylphenol, 0.5 mM EDTA, 0.0125% Tween 20 and 3.3×10^−4 M acridan 5 in the wells of a black microplate. The term S-B refers to the chemiluminescence signal (S) in Relative Light Units (RLU) in the presence of HRP corrected for background chemiluminescence (B) in the absence of HRP.
FIG. 2 is a graph relating the amount of HRP to the chemiluminescence intensity at 15 min emitted by 100 μL of a reagent described in Example 21 containing acridan phosphate 13 triggered at room temperature. Chemiluminescence emission was initiated by addition of 10 μL of solutions of HRP containing between 1.4×10^−15 and 1.4×10^−19 moles of enzyme to 100 μL of a reagent comprising 0.055 M tris buffer, pH 8.6, 0.25 mM urea peroxide, 0.05 mM p-phenylphenol, 0.5 mM EDTA, 0.0125% Tween 20 and 3.3×10^−4 M acridan 13 in a black microplate.
FIG. 3 is a graph showing the time profile of chemiluminescence resulting from reaction of 1.4×10^−15 moles of HRP at 25° C. with 100 μL of the reagent containing acridan 5 described in Example 20.
(§1) FIG. 4 is a graph relating the amount of HRP to the maximum chemiluminescence intensity at 2 min emitted by 100 μL of a reagent containing acridan 37 triggered at room temperature. Chemiluminescence emission was initiated by addition of 10 μL of solutions of HRP containing between 1.4×10^−14 to 1.4×10^−19 moles to 100 μL of reagent composition comprising 0.01 M tris buffer, pH 8.0, 0.5 mM urea peroxide, 0.1 mM p-phenylphenol, 1 mM EDTA, 0.025% Tween 20 and 5×10^−5 M acridan 37.
FIG. 5 is a graph showing the time profile of chemiluminescence resulting from reaction of 1.4×10^−15 moles of HRP at 25° C. with 40 μL of a reagent comprising 0.01 M tris buffer, pH 8.0, 0.5 mM urea peroxide, 0.1 mM p-phenylphenol, 1 mM EDTA, 0.025% Tween 20 and 5×10^−5 M acridan 38.
as §1, with “FIG. 6” for “FIG. 4”, “at 30” for “at 2”, “acridan 39” for “acridan 37”, “between 1.4×10^−15” for “between 1.4×10^−14”, “to 1.4×10^−20” for “to 1.4×10^−19”, “acridan 39.” for “acridan 37.”
FIG. 7 is a graph showing the time profile of chemiluminescence resulting from reaction of 3.5×10^−16 moles of HRP at 25° C. with 100 μL of a reagent comprising 0.01 M tris buffer, pH 8.0, 0.5 mM urea peroxide, 0.1 mM p-phenylphenol, 1 mM EDTA, 0.025% Tween 20 and 5×10^−5 M acridan 50.
FIG. 8 is a graph relating the amount of HRP to the maximum chemiluminescence intensity at 15 min emitted by 100 μL of a reagent containing acridan 43 triggered at room temperature. Chemiluminescence emission was initiated by addition of 10 μL of solutions of HRP containing between 1.4×10^−15 to 1.4×10^−19 moles to 100 μL of a reagent composition comprising 0.055 M tris buffer, pH 8.6, 0.25 mM urea peroxide, 0.05 mM p-phenylphenol, 0.5 mM EDTA, 0.0125% Tween 20, 1 mM CTAB and 6.6×10^−4 M acridan 43.
Reagent compositions comprising 0.055 M tris buffer, pH 8.6, 0.25 mM urea peroxide, 0.05 mM p-phenylphenol, 0.5 mM EDTA, 0.0125% Tween 20, 1 mM CTAB and 3.3×10^−4 M compound 46 alone or with 50 μM DBA were tested for production of chemiluminescence by reacting a 100 μL aliquot with 3.5×10^−15 moles of HRP. […]

Structure (SMILES) | production of chemiluminescence on reaction with a peroxidase and a peroxide | time to maximum chemiluminescence intensity | increase of light intensity when CTAB was included in the reaction mixture (reaction with a peroxidase and a peroxide, with vs without CTAB)
C/C(=C(/OP(=O)([O-])[O-])Sc1ccccc1)c1ccc2cc([O-])ccc2c1.[Na+].[Na+].[Na+] [Compound 43] | – | – | increased more than ten-fold
CCOP(=O)(OCC)OC(Sc1ccccc1)=C1c2ccccc2N(C)c2ccccc21 [Compound 38] | Light production ensued upon mixing | 1 min | –
CCOP(=O)(OCC)OC(Oc1ccccc1)=C1c2ccccc2N(C)c2ccccc21 [Compound 37] | Light production ensued upon mixing | – | –

Other lines, results leading:

production of chemiluminescence on reaction with a peroxidase and a peroxide | time to maximum chemiluminescence intensity | increase of light intensity when CTAB was included in the reaction mixture (reaction with a peroxidase and a peroxide, with vs without CTAB) | Structure (SMILES)
Light production ensued upon mixing | 7 min | – | COC(Sc1ccccc1)=C1c2ccccc2N(C)c2ccccc21 [Compound 50]
Light production ensued upon mixing | 30 min | – | CC(=O)OC(Oc1ccccc1)=C1c2ccccc2N(C)c2ccccc21 [Compound 39]
Light production ensued upon mixing | 7 min | – | CC(=O)OC(Sc1ccccc1)=C1c2ccccc2N(C)c2ccccc21 [Compound 40]
